Data as given in publication PMC7845544 (Frontiers in Pharmacology, 2021).

How the values were obtained:
PDE isoforms = assay: Phosphodiesterase (PDE) profile (Eurofins); type: biochemical; details: 9 isoforms PDE
mouse oocytes = assay: Oocyte quality, IVF and embryo development in mice; type: in vivo
Procedure: Developmental competence of oocytes was determined in mice, as described previously ([Sriraman et al., 2014]). Mice were superovulated with FSH or FSH + TOP5300. […] To measure nuclear status, oocytes were assessed for perivitelline space and first polar body extrusion by phase contrast inverted microscopy. Oocyte maturity was determined by presence of a polar body reflecting oocytes in metaphase-II (MII). Oocytes without a first polar body were assessed as metaphase-I (MI). After the evaluations, oocytes were incubated for 2 h in the media before use in IVF as described ([Sriraman et al., 2014]). Briefly, oocytes were placed in fertilization media (Research Fertilization Media, Cook Medical, Bloomington, IN, United States) under paraffin oil (Calbiochem, San Diego, CA, United States) and incubated at 37°C in 6% CO2, 5% O2 and 89% N2 for 5–6 h with spermatozoa. Spermatozoa were collected from the cauda epididymis of male C57BL/6J mice and were previously incubated for 1 h in fertilization media prior to use (Research Fertilization Media; Cook Medical, Bloomington, IN) for sperm capacitation. The putative zygotes were then washed and placed in 20 μL drops of culture media (Research Cleave Media; Cook Medical, Bloomington, IN, United States) in Petri dishes, or in 60 μL of culture media in Primo Vision microwell group culture dishes (Vitrolife, Gothenberg, Sweden) and checked for fertilization/cleavage the next morning. Embryos were then cultured in the incubator for an additional 3 days to the blastocyst stage and the blastocyst development rate was recorded.

[1] = rec-hFSH + TOP5300, 30, 100 mg/kg

Compound: COc1cc2c(cc1-c1cnn(CCO)c1)-c1c(c(C(=O)N(C)C(C)(C)C)nn1-c1cc(Cl)cc(Cl)c1)CO2 [TOP5300]
- PDE profile @ 10 uM (PDE isoforms): N o si g ni fi cant i nhi bi ti on any
- % of M2 oocytes (mouse oocytes; 30 mg/kg with low dose FSH): comparable to FSH and PMSG
- M1/M2 oocytes relative to FSH and PMSG group (mouse oocytes; 100 mg/kg): fewer mature oocytes (M2 oocytes) and more M1 oocytes
- fertilization rates vs rec-hFSH-treated mice (mouse oocytes; [1]): no differences
- hatched blastocyst rates vs rec-hFSH-treated mice (mouse oocytes; [1]): no differences
